In assay [1] the target is T1, rat adrenergic α1B receptor (Rattus norvegicus, UniProt P15823).
T1 construct: rat adrenergic α1B receptor obtained from Wistar Rat liver; from tissue; host or cells: Wistar rat liver
T1 sequence (P15823 1-515): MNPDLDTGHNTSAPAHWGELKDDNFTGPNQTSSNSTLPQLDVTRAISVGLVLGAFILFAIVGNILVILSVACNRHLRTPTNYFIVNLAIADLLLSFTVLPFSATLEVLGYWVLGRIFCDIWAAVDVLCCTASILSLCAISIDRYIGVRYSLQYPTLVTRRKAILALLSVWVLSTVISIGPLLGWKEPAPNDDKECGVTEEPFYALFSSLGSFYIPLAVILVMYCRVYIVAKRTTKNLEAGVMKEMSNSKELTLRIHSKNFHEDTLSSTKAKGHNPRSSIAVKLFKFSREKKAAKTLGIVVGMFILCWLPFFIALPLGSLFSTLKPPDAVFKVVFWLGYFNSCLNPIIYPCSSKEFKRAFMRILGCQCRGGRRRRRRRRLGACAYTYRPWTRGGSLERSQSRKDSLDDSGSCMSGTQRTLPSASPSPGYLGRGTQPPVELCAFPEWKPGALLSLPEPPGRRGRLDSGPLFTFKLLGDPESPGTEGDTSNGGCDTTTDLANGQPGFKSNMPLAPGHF
Description: Radioligand binding, adrenergic α1B receptor ([3H]Prazosin). As to conditions: 0.1 μM compound, Wistar rat liver, read-out: Percentage inhibition of ligand binding, Adrenergic α1B. The gist of the method:
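Wistar rat liver α1B receptor preparation incubated with 0.25 nM [3H]prazosin and compound for 60 min at 25° C in 50 mM Tris-HCl pH 7.4, 0.5 mM EDTA; nonspecific binding defined with 10 μM phentolamine.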

Assay [2] addresses T2, human recombinant adrenergic α1D receptor (Homo sapiens, UniProt P25100).
T2 construct: expressed in transfected cells; host or cells: HEK-293
T2 sequence (P25100 1-572): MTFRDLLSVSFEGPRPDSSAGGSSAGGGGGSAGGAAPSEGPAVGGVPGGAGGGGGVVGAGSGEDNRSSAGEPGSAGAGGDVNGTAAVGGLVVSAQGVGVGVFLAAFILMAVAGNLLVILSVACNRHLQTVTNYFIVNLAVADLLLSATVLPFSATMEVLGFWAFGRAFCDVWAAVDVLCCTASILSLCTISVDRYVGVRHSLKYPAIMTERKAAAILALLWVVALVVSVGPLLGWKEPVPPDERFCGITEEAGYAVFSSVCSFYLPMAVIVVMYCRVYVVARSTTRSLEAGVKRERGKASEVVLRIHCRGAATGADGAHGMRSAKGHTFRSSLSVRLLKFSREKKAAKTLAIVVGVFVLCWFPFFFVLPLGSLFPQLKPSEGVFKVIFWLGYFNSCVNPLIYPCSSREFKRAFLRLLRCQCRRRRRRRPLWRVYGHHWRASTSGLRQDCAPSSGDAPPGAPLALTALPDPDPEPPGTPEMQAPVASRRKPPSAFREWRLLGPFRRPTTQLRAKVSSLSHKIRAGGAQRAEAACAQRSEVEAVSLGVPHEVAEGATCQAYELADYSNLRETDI
Description: Radioligand binding, adrenergic α1D receptor ([3H]Prazosin). The note with it: 0.1 μM compound; HEK-293 cells; 0.6 nM [3H]Prazosin; read-out: Percentage inhibition of ligand binding, Adrenergic α1D. Here is the method:
Compounds were incubated with 0.6 nM [3H]Prazosin for 60 min at 25° C. Non-specific binding was estimated in the presence of 10 μM phentolamine. Receptor proteins were filtered and washed, the filters were then counted to determine [3H]Prazosin specifically bound. Compounds were screened at 1 μM or lower, using 1% DMSO as vehicle. Biochemical assay results are presented as the percent inhibition of specific binding in Table 2.

Assay [3] deals with T3, human recombinant adrenergic α2B receptor (Homo sapiens, UniProt P18089).
T3 construct: expressed in transfected cells; host or cells: CHO-K1
T3 sequence (P18089 1-450): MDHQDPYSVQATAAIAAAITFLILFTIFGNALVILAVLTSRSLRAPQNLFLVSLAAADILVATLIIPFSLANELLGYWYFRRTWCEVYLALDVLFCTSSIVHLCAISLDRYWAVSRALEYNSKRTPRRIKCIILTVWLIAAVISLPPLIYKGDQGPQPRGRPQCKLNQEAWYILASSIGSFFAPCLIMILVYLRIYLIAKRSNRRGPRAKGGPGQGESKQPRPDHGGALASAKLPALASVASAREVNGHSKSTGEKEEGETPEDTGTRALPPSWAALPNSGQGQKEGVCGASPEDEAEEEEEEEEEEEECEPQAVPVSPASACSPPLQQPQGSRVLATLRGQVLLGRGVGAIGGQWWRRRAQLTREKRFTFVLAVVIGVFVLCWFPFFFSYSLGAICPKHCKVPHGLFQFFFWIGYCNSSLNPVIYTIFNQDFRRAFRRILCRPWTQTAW
The assay can be described thus: Radioligand binding, adrenergic α2B receptor ([3H]Rauwolscine). As to conditions: 0.1 μM compound, CHO-K1 cells, read-out: Percentage inhibition of ligand binding, Adrenergic α2B. The gist of the method: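 Percent inhibition of specific [3H]Rauwolscine (2.5 nM) binding, compounds at ≤1 μM, 1% DMSO vehicle, 10 μM prazosin defining nonspecific. Receptor: human α2B expressed in CHO-K1 cells, 60 min incubation at 25 °C in Tris-HCl pH 7.4 buffer (MgCl2, EDTA, BSA); filtered, washed, counted.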

Assay [4] addresses T4, human recombinant adrenergic α2A receptor (Homo sapiens, UniProt P08913).
T4 construct: expressed in transfected cells; host or cells: insect Sf9 cells
T4 sequence (P08913 1-465): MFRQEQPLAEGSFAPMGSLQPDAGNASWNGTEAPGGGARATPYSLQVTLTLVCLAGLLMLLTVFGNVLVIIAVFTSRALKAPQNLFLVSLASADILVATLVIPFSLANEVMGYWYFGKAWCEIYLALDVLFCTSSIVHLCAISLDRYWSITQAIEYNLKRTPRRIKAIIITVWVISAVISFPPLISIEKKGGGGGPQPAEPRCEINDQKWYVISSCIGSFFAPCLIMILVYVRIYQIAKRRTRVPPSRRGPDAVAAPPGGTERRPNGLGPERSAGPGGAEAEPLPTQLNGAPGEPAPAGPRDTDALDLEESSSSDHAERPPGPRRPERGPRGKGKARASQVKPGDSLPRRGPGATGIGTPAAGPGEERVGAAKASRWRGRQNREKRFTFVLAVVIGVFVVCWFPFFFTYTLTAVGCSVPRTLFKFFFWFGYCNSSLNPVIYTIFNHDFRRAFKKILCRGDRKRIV
The assay can be described thus: Radioligand binding, adrenergic α2A receptor ([3H]MK-912). The note with it: 0.1 μM compound; Sf9 cells; 1 nM [3H]MK-912; read-out: Percentage inhibition of ligand binding, Adrenergic α2A. The gist of the method:
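Percent inhibition of specific [3H]MK-912 (1 nM) binding measured by filtration counting, compounds tested at ≤1 μM in 1% DMSO. Receptor: human α2A from Sf9 cells; incubation 60 min, 25 °C, pH 7.4; 10 μM WB-4101 defined nonspecific binding.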

As usually defined, the inhibition is the relative decrease from the control value, in per cent. For `Cc1ccc2c(c1)c1c(n2-c2ccc(-c3ccncc3)cn2)CCN(C)C1` [Compound No. 132, 5-(3,4′-bipyridin-6-yl)-2,8-dimethyl-2,3,4,5-tetrahydro-1H-pyrido[4,3-b]indole], the inhibition at 0.1 µM in assay [1] is 33%; in assay [2], 28%; in assay [3] it was 69%; in assay [4] it was 17%.

As for `Cc1ccc2c(c1)c1c(n2-c2ccccc2-c2ccc(F)cc2)CCN(C)C1` [Compound 10, 5-(4′-fluoro-biphenyl-2-yl)-2,8-dimethyl-2,3,4,5-tetrahydro-1H-pyrido[4,3-b]indole], the inhibition at 0.1 µM was 61% in assay [1], 63% in assay [2], 85% in assay [3] and 88% in assay [4].

With `Cc1csc(-c2ccc(-n3c4c(c5cc(C)ccc53)CN(C)CC4)nc2)c1` [Compound No. 144, 2,8-dimethyl-5-(5-(4-methylthiophen-2-yl)pyridin-2-yl)-2,3,4,5-tetrahydro-1H-pyrido[4,3-b]indole], the inhibition at 0.1 µM in assay [1] was 68%; in assay [2], 52%; in assay [3] it was 95%; in assay [4], 72%.

On to `Cc1ccc2c(c1)c1c(n2-c2ccc(-c3ccc(S(N)(=O)=O)cc3)cn2)CCN(C)C1` [Compound No. 145, 4-(6-(2,8-dimethyl-3,4-dihydro-1H-pyrido[4,3-b]indol-5(2H)-yl)pyridin-3-yl)benzenesulfonamide], for which the inhibition at 0.1 µM stood at 86% in assay [1], 73% in assay [2], 83% in assay [3] and 71% in assay [4].

For `CNC(=O)c1ccc(-c2cccc(-n3c4c(c5cc(C)ccc53)CN(C)CC4)c2)cn1` [Compound No. 75, 5-(3-(2,8-dimethyl-3,4-dihydro-1H-pyrido[4,3-b]indol-5(2H)-yl)phenyl)-N-methylpicolinamide], the inhibition at 0.1 µM came out at 20% in assay [1], 15% in assay [2], 16% in assay [3] and 21% in assay [4].

In the case of `Cc1cc(C)c2c(c1)c1c(n2-c2cccc(-c3ccncc3)c2)CCN(C)C1` [Compound 57, 2,6,8-trimethyl-5-(3-(pyridin-4-yl)phenyl)-2,3,4,5-tetrahydro-1H-pyrido[4,3-b]indole], the inhibition at 0.1 µM is 6% in assay [1], -1% in assay [2], 11% in assay [3] and 7% in assay [4].

As for `Cc1csc(-c2cccc(-n3c4c(c5cc(C)ccc53)CN(C)CC4)c2)c1` [Compound No. 63, 2,8-dimethyl-5-(3-(4-methylthiophen-2-yl)phenyl)-2,3,4,5-tetrahydro-1H-pyrido[4,3-b]indole], the inhibition at 0.1 µM in assay [1] was 2%; in assay [2], 5%; in assay [3], 11%; in assay [4] it was 30%.

Regarding `CC(=O)Nc1ccc(-c2ccc(-n3c4c(c5cc(C)ccc53)CN(C)CC4)nc2)cn1` [Compound No. 139, N-(6′-(2,8-dimethyl-3,4-dihydro-1H-pyrido[4,3-b]indol-5(2H)-yl)-3,3′-bipyridin-6-yl)acetamide], the inhibition at 0.1 µM in assay [1] stood at 55%; in assay [2] it was 45%; in assay [3], 59%; in assay [4], 18%.

For the compound `Cc1ccc2c(c1)c1c(n2-c2cscc2C(=O)N(C)C)CCN(C)C1` [Compound No. 152], the inhibition at 0.1 µM was determined as 10% in assay [1], 16% in assay [2], 51% in assay [3] and 9% in assay [4].

As to `CNC(=O)c1cc(-n2c3c(c4cc(C)ccc42)CN(C)CC3)cs1` [Compound No. 78], the inhibition at 0.1 µM in assay [1] was found to be 8%; in assay [2] it was 21%; in assay [3], 86%; in assay [4], 63%.

Source of the values: patent US20140155384A1, “COMPOUNDS AND METHODS OF TREATING DIABETES” (Medivation Technologies, Inc., priority 2011, published 2014).
